Legend:
[1] = system: Penicillium avellaneum; experiment: agar plate paper-disc inhibition zone screening; type: cell-based; details: Hamigera avellanea, read-out: Inhibition Zone Diameter mm (Dose mg/ml) P. Avellaneum; for zone of inhibition at 3000 µg/mL: Dose 3.0 mg/ml
Procedure: The Penicillium avellaneum is grown for six days, at 28°C, on an agar medium. This is to allow sporulation of the culture. The organism is then harvested by scraping off the cells from the agar surface (mycelia and spores) and suspending them in saline solution containing 0.05% Tween 80.
The suspension is adjusted to a light transmittancy of 20%. One ml of this suspension is used to inoculate 100 ml of the molten-agar assay medium.
(§1) Stainless steel frames, 12.3 x 25.3 cm (ID) and glass plates, 15.3 x 31.7 cm are used to make the test trays. The frames are attached to the plates with tape at each end and the inner edges sealed with 2% agar. Twenty five ml of inoculated assay medium is spread evenly on each tray and allowed to solidify. The trays are covered, inverted, and refrigerated until used.
(§2) The compounds or samples to be tested are dissolved in suitable solvents, e.g., alcohols, dimethylsulfoxide, or N,N-dimethylformamide. The samples are generally dissolved so that the final concentration of the solvent is <10%.^* The compounds are tested at different concentrations: 3,000; 1,000; 500; 100; and 10 mcg/ml. Paper discs (12.7 mm diameter) are placed on the agar trays with forceps, then 0.08 ml of the dissolved compound is pipetted onto each disc using a 0.2 ml pipette.
(§3) The disked agar trays are incubated overnight (18-20 hours) at 37°C for the bacterial cultures and 28°C for the yeasts. The Penicillium avellaneium tray is incubated for at least […] since it is a slower- growing organism.
(§4) Active compounds show a zone of inhibition around the disc. The diameter of the zone is measured in mm. The zone diameter of active compounds ranges from a minimum of 13.5 mm to as high as 60 mm. The size of the zone diameter generally reflects the activity of the compound: the larger the zone the greater the activity.

[2] = system: Escherichia coli; experiment: agar plate paper-disc inhibition zone screening; type: cell-based; details: read-out: Inhibition Zone Diameter mm (Dose mg/ml) E. Coli; for zone of inhibition at 100 µg/mL: Dose 0.1 mg/ml; for zone of inhibition at 500 µg/mL: Dose 0.5 mg/ml; for zone of inhibition at 3000 µg/mL: Dose 3.0 mg/ml
Procedure: (§5) The bacterial and yeast isolates are maintained in agar slants or in liquid media, hereby designated as inoculum media. The cultures are transferred at regular intervals in such media. (See Table for the corresponding inoculum media of each culture.) The organisms are generally transferred on to agar slants or liquid inoculum media and incubated overnight (18-20 hours): 37°C for the bacterial isolates and 28°C for the fungal cultures.
(§6) The microbial cells from the overnight agar slants are then scraped off and suspended in saline solution (0.85% NaCI). The microbial concentrations are adjusted to a light transmittancy of 20-35%, Junior Coleman Spectrophotometer (555 M). For the organisms that are maintained in liquid media, an aliquot of the culture suspension is simply diluted with saline to 20-35% light transmittancy.
(§7) The above microbial suspension serve as inocula for the assay plates. Thus, 0.16-10 ml (see Table for exact amount) are used to inoculate 100 ml of the molten-agar assay medium.
as §1, §2, §3, §4

[3] = system: Streptococcus faecalis; experiment: agar plate paper-disc inhibition zone screening; type: cell-based; details: Enterococcus faecalis, read-out: Inhibition Zone Diameter mm (Dose mg/ml) S. Faecalis; for zone of inhibition at 1000 µg/mL: Dose 1.0 mg/ml; for zone of inhibition at 3000 µg/mL: Dose 3.0 mg/ml
Procedure: as §5, §6, §7, §1, §2, §3, §4

[4] = system: Aerobacter aerogenes; experiment: agar plate paper-disc inhibition zone screening; type: cell-based; details: Klebsiella aerogenes, read-out: Inhibition Zone Diameter mm (Dose mg/ml) A. Aerogenes; for zone of inhibition at 500 µg/mL: Dose 0.5 mg/ml; for zone of inhibition at 1000 µg/mL: Dose 1.0 mg/ml; for zone of inhibition at 3000 µg/mL: Dose 3.0 mg/ml
Procedure: as §5, §6, §7, §1, §2, §3, §4

[5] = system: Bacillus subtilis; experiment: agar plate paper-disc inhibition zone screening; type: cell-based; details: read-out: Inhibition Zone Diameter mm (Dose mg/ml) B. Subtilis; for zone of inhibition at 100 µg/mL: Dose 0.1 mg/ml; for zone of inhibition at 500 µg/mL: Dose 0.5 mg/ml; for zone of inhibition at 1000 µg/mL: Dose 1.0 mg/ml; for zone of inhibition at 3000 µg/mL: Dose 3.0 mg/ml
Procedure: as §5, §6, §7, §1, §2, §3, §4

[6] = system: lymphocytic leukemia P388; experiment: in vivo lymphocytic leukemia P388 test; design: species or system mice; details: Mus musculus, P388, ip, 720 h, two single doses four days apart, read-out: T/C × 100 (Percent); for response vs control in vivo at 0.78 mg/kg: P388, Dose 0.78 mg/kg intraperitoneally; for response vs control in vivo at 1.56 mg/kg: P388, Dose 1.56 mg/kg intraperitoneally; for response vs control in vivo at 25 mg/kg: P388, Dose 25 mg/kg intraperitoneally; for response vs control in vivo at 6.25 mg/kg: P388, Dose 6.25 mg/kg intraperitoneally
Procedure: The in vivo lymphocytic leukemia P388 test is carried out by the United States National Cancer Institute. The animals used are either male or female CD2F, mice. There are six to seven animals per test group. The tumor transplant is by intraperitoneal injection of dilute ascitic fluid containing cells of lymphocytic leukemia P388. The test compounds are administered intraperitoneally in two single doses with a four-day interval between doses at various dose levels following tumor inoculation. The animals are weighed and survivors are recorded on a regular basis for 30 days. A ratio of survival time for treated (T)/ control (C) animals is calculated. The criterion for efficacy is T/C x 100 > 125%. The positive control compound in this test is 1,4-dihydroxy-5,8-[bis[[2-[(2-hydroxyethyl)amino]-ethyl]amino]-9,10-anthracene- dione given at dosages ranging from 12.0 to 0.075 mg/kg. See Cancer Chemotherapy Reports, Part 3, 3, 1 (1972) for a comprehensive discussion of the protocol.

| Structure (SMILES) | zone of inhibition at 3000 µg/mL [1] [mm] | zone of inhibition at 500 µg/mL [4] [mm] | zone of inhibition at 500 µg/mL [2] [mm] | zone of inhibition at 3000 µg/mL [3] [mm] | zone of inhibition at 1000 µg/mL [5] [mm] | zone of inhibition at 3000 µg/mL [2] [mm] | zone of inhibition at 3000 µg/mL [4] [mm] | zone of inhibition at 3000 µg/mL [5] [mm] | also measured |
| --- | --- | --- | --- | --- | --- | --- | --- | --- | --- |
| CCN(CC)CCn1nc2c3c(c(NCCNCCO)ccc31)C(=O)c1ccccc1-2 [Example 2] | 0 | 18 | – | – | – | – | – | – | zone of inhibition at 100 µg/mL [2]: 14 mm; zone of inhibition at 500 µg/mL ([3]; Dose 0.5 mg/ml): 15 mm; zone of inhibition at 100 µg/mL [5]: 16 mm; response vs control in vivo at 0.78 mg/kg [6]: 135%; response vs control in vivo at 1.56 mg/kg [6]: 142%; response vs control in vivo at 25 mg/kg [6]: 197% |
| O=C1c2ccccc2-c2nn(CCNCCO)c3ccc(NCCO)c1c23 [Example 24, 5-[(2-Hydroxyethyl)amino]-2-[2-[(2-hydroxyethyl)amino]ethyl]anthra[1,9-cd]pyrazol-6(2H)-one] | 0 | – | 15 | – | – | – | – | – | zone of inhibition at 1000 µg/mL [3]: 14 mm; zone of inhibition at 1000 µg/mL [4]: 14 mm; zone of inhibition at 500 µg/mL [5]: 18 mm |
| CCN(CC)CCn1nc2c3c(c(NCCNC)ccc31)C(=O)c1c(O)ccc(O)c1-2 [Example 31, 2-[2-(Diethylamino)ethyl]-7,10-dihydroxy-5-[[2-(methylamino)ethyl]amino]anthra[1,9-cd]pyrazol-6(2H)-one] | 0 | 16 | 16 | 14 | 17 | – | – | – | response vs control in vivo at 3.12 mg/kg ([6]; P388, Dose 3.12 mg/kg intraperitoneally): 154%; response vs control in vivo at 6.25 mg/kg [6]: 163%; response vs control in vivo at 12.5 mg/kg ([6]; P388, Dose 12.5 mg/kg intraperitoneally): 191%; response vs control in vivo at 25 mg/kg [6]: 219%; response vs control in vivo at 50 mg/kg ([6]; P388, Dose 50 mg/kg intraperitoneally): 172% |
| CN(C)CCn1nc2c3c(c(NCCNCCO)ccc31)C(=O)c1c(O)ccc(O)c1-2 [Example 32] | 0 | – | 15 | 0 | 15 | – | – | – | zone of inhibition at 1000 µg/mL [4]: 14 mm; response vs control in vivo at 0.78 mg/kg [6]: 161%; response vs control in vivo at 1.56 mg/kg [6]: 163%; response vs control in vivo at 6.25 mg/kg [6]: 214% |
| Cn1nc2c3c(c(NCCN)ccc31)C(=O)c1c(O)ccc(O)c1-2 [Example 40, 5-[(2-Aminoethyl)amino]-7,10-dihydroxy-2-methylanthra[1,9-cd]pyrazol-6(2H)-one] | 0 | – | – | 14 | – | 14 | 14 | 0 | – |
| CCN(CC)CCn1nc2c3c(c(Cl)ccc31)C(=O)c1c(O)ccc(O)c1-2 [Example 49, 5-Chloro-2-[2-(diethylamino)ethyl]-7,1 0-dihydroxyanthra[1,9-cd] pyrazol-6(2H)-one] | 16 | – | – | 0 | 14 | 0 | 0 | – | – |
| O=C1c2c(O)ccc(O)c2-c2nn(CCNCCO)c3ccc(NCCN4CCOCC4)c1c23 [Example 61, 7,10-Dihydroxy-2-[2-[(2-hydroxyethyl)amino]ethyl]-5-[[2-(4-morpholinyl)ethyl]amino]anthra[1,9-cd]pyrazol-6(2H)-one] | 0 | – | – | 0 | 15 | 14 | 0 | – | – |
| NCCNc1ccc2c3c(nn2CCN)-c2c(O)ccc(O)c2C(=O)c13 [Example 72, 2-(2-Aminoethyl)-5-[(2-aminoethyl)amino]-7,10-dihydroxyanthra[1,9-cd]pyrazol-6(2H)-one] | 0 | – | – | 0 | – | 0 | 14 | 0 | – |
| COCCn1nc2c3c(c(NCCN)ccc31)C(=O)c1c(O)ccc(O)c1-2 [Example 77, 5-[(2-Aminoethyl)amino]-7,10-dihydroxy-2-(2-methoxyethyl)anthra(1,9-cd]pyrazol-6(2H)-one] | 0 | – | – | 0 | – | 16 | 14 | 16 | – |
| O=C1c2c(NCCNCCO)cccc2-c2nn(CCNCCO)c3cccc1c23 [Example 81, 2-[2-[(2-Hydroxyethyl)amino]lethyl]-7-[[2-[(2-hydroxyethyl)amino]ethyl]amino]anthra[1,9-cd]pyrazol-6(2H)-one] | 0 | 17 | – | 0 | – | – | – | – | zone of inhibition at 1000 µg/mL ([2]; Dose 1.0 mg/ml): 20 mm; zone of inhibition at 500 µg/mL [5]: 16 mm |
| CCN(CC)CCn1nc2c3c(c(Cl)ccc31)C(=O)c1ccccc1-2 [H; Cl*; (CH2)2NEt2, 5-Chloro-2-[2-(diethylamino)ethyl]anthra[1,9-cd]pyrazol-6(2H)-one] | – | 14 | 14 | – | – | – | – | – | zone of inhibition at 500 µg/mL ([1]; Dose 0.5 mg/ml): 16 mm; zone of inhibition at 1000 µg/mL [3]: 16 mm; zone of inhibition at 100 µg/mL [5]: 16 mm |
| NCCn1nc2c3c(c(Cl)ccc31)C(=O)c1ccccc1-2 [H; Cl*; (CH2)2NH2, 2-(2-Aminoethyl)-5-chloroanthra[1,9-cd]pyrazol-6(2H)-one] | 16 | – | – | 0 | – | – | – | 14 | zone of inhibition at 100 µg/mL [2]: 16 mm; zone of inhibition at 100 µg/mL ([4]; Dose 0.1 mg/ml): 25 mm |
| CCN(CC)CC(O)Cn1nc2c3c(c(Cl)ccc31)C(=O)c1ccccc1-2 (stereo not shown) [H; Cl*; CH2CHOHCH2NEt2] | – | – | 14 | – | 14 | – | 17 | – | zone of inhibition at 1000 µg/mL ([1]; Dose 1.0 mg/ml): 16 mm; zone of inhibition at 1000 µg/mL [3]: 15 mm |

Source: patent publication EP0103381B1, “Substituted anthra(1,9-cd)pyrazol-6(2H)-ones” (WARNER-LAMBERT COMPANY, priority 1982, dated 1984)
